Read-outs that look alike come from different tables or passages of the source.
How the values were obtained:
[1] = specific surface area (multi point BET, nitrogen); assay type: physicochemical; settings: air-jet-ground, anhydrous
Description: • Measuring method: In order to determine the particle size the powder is fed into a laser diffraction spectrometer using a dispersing unit. The median value X50 refers to the particle size below which 50% of the quantity of particles fall. The Q(5.8) value describes the percentage of particles which are less than 5.8 μm in size. • Measuring device: Laser diffraction spectrometer (HELOS), Messrs. • Sympatec • Software: WINDOX Version 3.3/REL 1 • Dispersing unit: RODOS/dispersing pressure: 3 bar • Focal length: 100 mm [measuring range: 0.9 . . . . 175 μm] • Evaluation method: HRLD (V 3.3 Rel. 1) b) Determining the Specific Surface Area: • Measuring method: The specific surface is determined by exposing the powder sample to a nitrogen atmosphere at different pressures.
Cooling the sample causes the nitrogen molecules to be condensed on the surface of the particles. The quantity of condensed nitrogen is determined by means of the drop in pressure in the system and the specific surface area of the sample is calculated by means of the surface nitrogen requirement and the weight of the sample. • Measuring device: Tri Star Multi Point BET, Messrs. Micromeritics • Heating station: VacPrep 061, Messrs. Micromeritics
Heating: approx. 12 h/40° C.

[2] = conventional formulations; cited from earlier work
[3] = hygroscopicity; assay type: physicochemical
[4] = systemic bioavailability after pulmonary or nasal inhalation; assay type: in vivo; settings: powder mixture with excipients, inhaled
[5] = physical stability of the amorphous micronised active substance in powder mixtures with excipients; assay type: physicochemical
Description: It is known that the amorphous state of solids is thermodynamically unstable. In particular, this contributes to the fact that microparticles which have amorphous parts or are purely amorphous are metastable in their physicochemical properties. Typically, amorphous or partially amorphous pharmaceutical active substances and excipients, such as sugars, for example, recrystallise spontaneously during storage under normal conditions. The process may be accelerated by an increase in the relative humidity and possibly the temperature. In association with this recrystallisation, the particles change their surface characteristics, their particle morphology and their particle size.

- specific surface area [1]: 20.2 m^2/g
- hygroscopicity [3]: hygroscopic
- hygroscopicity ([3]; listed as active substance): strongly hygroscopic
- bioavailability by pulmonary or nasal inhalation [4]: sufficiently bioavailable
- amorphous form on storage (X-ray powder diffractometry) ([5]; amorphous micronised particles, shelf life of the medicament): maintained throughout the shelf life
- physical stability ([5]; powder mixtures with excipients): physically stable
Compound: NCCCC[C@H](NC(=O)[C@@H](Cc1cc(Br)c(O)c(Br)c1)NC(=O)N1CCC(N2Cc3ccccc3NC2=O)CC1)C(=O)N1CCN(c2ccncc2)CC1 [A, 1-[N^2-[3,5-dibromo-N-[[4-(3,4-dihydro-2(1H)-oxoquinazolin-3-yl)-1-piperidinyl]carbonyl]-D-tyrosyl]-L-lysyl]-4-(4-pyridinyl)-piperazine]
- oral bioavailability [2]: very limited oral bioavailability
